Tested on: diarrhea-predominant IBS subjects
Test: 3007 Study: open-label 52-week safety study, adverse events and withdrawals
Details: Cilansetron 2 mg/Cilansetron 2 mg

## Cc1nccn1C[C@H]1CCc2c(c3cccc4c3n2CCC4)C1=O [cilansetron, (R)-(−)-4,5,6,8,9,10-hexahydro-10-[(2-methyl-1H-imidazol-1-yl)methyl]-11H-pyrido-[3,2,1-jk]-carbazol-11-one]
  TEAE: Upper Limb Fractures and Dislocations: 0 n (%)
  TEAE: Upper Respiratory Tract Infection NOS: 18 (7%) n (%)
  TEAE: Upper Respiratory Tract Infections - Pathogen Class Unspecified: 42 (16%) n (%)
  TEAE: Urinalysis NEC: 10 (4%) n (%)
  TEAE: Urinary Tract Infection NOS: 16 (6%) n (%)
  TEAE: Urinary Tract Infections: 17 (7%) n (%)
  TEAE: Urine Analysis Abnormal NOS: 1 (<1%) n (%)
  TEAE: Urine Bilirubin Increased: 0 n (%)
  TEAE: Urine Ketone Body Present: 3 (1%) n (%)
  TEAE: Urine Leukocyte Esterase Positive: 3 (1%) n (%)
  TEAE: Urobilin Urine Present: 1 (<1%) n (%)
  TEAE: Vascular Auscultatory Investigations: 0 n (%)
  TEAE: Vascular Tests NEC (Incl Blood Pressure): 3 (1%) n (%)
  TEAE: Vasovagal Attack: 1 (<1%) n (%)
  TEAE: Viral Infection NOS: 2 (<1%) n (%)
  TEAE: Viral Infections NEC: 7 (3%) n (%)
  TEAE: Vomiting NOS: 9 (4%) n (%)
  TEAE: Weight Decreased: 1 (<1%) n (%)
  TEAE: Weight Increased: 6 (2%) n (%)
  TEAE: White Blood Cell Analyses: 4 (2%) n (%)
  TEAE: White Blood Cell Count Decreased: 1 (<1%) n (%)
  TEAE: White Blood Cells Urine Positive: 1 (<1%) n (%)
N=257
  TEAE leading to permanent discontinuation: Abdominal Distension: 2 (<1%) n (%)
  TEAE leading to permanent discontinuation: Abdominal Pain Aggravated: 1 (<1%) n (%)
  TEAE leading to permanent discontinuation: Abdominal Pain Lower: 0 n (%)
  TEAE leading to permanent discontinuation: Abdominal Pain NOS: 5 (2%) n (%)
  TEAE leading to permanent discontinuation: Abdominal Pain Upper: 1 (<1%) n (%)
  TEAE leading to permanent discontinuation: Alanine Aminotransferase Increased: 1 (<1%) n (%)
  TEAE leading to permanent discontinuation: Angina Pectoris: 1 (<1%) n (%)
  TEAE leading to permanent discontinuation: Appendicitis: 1 (<1%) n (%)
  TEAE leading to permanent discontinuation: Asthma Aggravated: 1 (<1%) n (%)
  TEAE leading to permanent discontinuation: Asthma NOS: 1 (<1%) n (%)
  TEAE leading to permanent discontinuation: Back Pain: 3 (1%) n (%)
  TEAE leading to permanent discontinuation: Bladder Prolapse: 0 n (%)
  TEAE leading to permanent discontinuation: Blood Bilirubin Increased: 1 (<1%) n (%)
  TEAE leading to permanent discontinuation: Blood Pressure Increased: 1 (<1%) n (%)
  TEAE leading to permanent discontinuation: Blood Urine Present: 1 (<1%) n (%)
  TEAE leading to permanent discontinuation: Bone Neoplasm Malignant: 1 (<1%) n (%)
  TEAE leading to permanent discontinuation: Cardiac Disorders: 1 (<1%) n (%)
  TEAE leading to permanent discontinuation: Chest Discomfort: 0 n (%)
  TEAE leading to permanent discontinuation: Chest Pain: 0 n (%)
  TEAE leading to permanent discontinuation: Chest Wall Pain: 0 n (%)
  TEAE leading to permanent discontinuation: Colitis Ischaemic: 0 n (%)
  TEAE leading to permanent discontinuation: Constipation: 7 (3%) n (%)
  TEAE leading to permanent discontinuation: Cough: 0 n (%)
  TEAE leading to permanent discontinuation: Dehydration: 1 (<1%) n (%)
  TEAE leading to permanent discontinuation: Depression: 0 n (%)
  TEAE leading to permanent discontinuation: Diarrhoea Aggravated: 1 (<1%) n (%)
  TEAE leading to permanent discontinuation: Diarrhoea Haemorrhagic: 0 n (%)
  TEAE leading to permanent discontinuation: Diarrhoea NOS: 4 (2%) n (%)
  TEAE leading to permanent discontinuation: Dizziness: 0 n (%)
  TEAE leading to permanent discontinuation: Dyspepsia: 1 (<1%) n (%)
  TEAE leading to permanent discontinuation: Ear and Labyrinth Disorders: 1 (<1%) n (%)
  TEAE leading to permanent discontinuation: Epigastric Discomfort: 0 n (%)
  TEAE leading to permanent discontinuation: Eructation: 1 (<1%) n (%)
  TEAE leading to permanent discontinuation: Eye Disorders: 0 n (%)
  TEAE leading to permanent discontinuation: Faecal Abnormality NOS: 1 (<1%) n (%)
  TEAE leading to permanent discontinuation: Faecal Impaction: 0 n (%)
  TEAE leading to permanent discontinuation: Faecal Incontinence: 0 n (%)
  TEAE leading to permanent discontinuation: Faeces Hard: 1 (<1%) n (%)
  TEAE leading to permanent discontinuation: Fatigue: 3 (1%) n (%)
  TEAE leading to permanent discontinuation: Fibroma NOS: 0 n (%)
  TEAE leading to permanent discontinuation: Flatulence: 2 (<1%) n (%)
  TEAE leading to permanent discontinuation: Gastric Irritation: 1 (<1%) n (%)
  TEAE leading to permanent discontinuation: Gastrointestinal Disorders: 24 (9%) n (%)
  TEAE leading to permanent discontinuation: Gastrointestinal Motility Disorder NOS: 0 n (%)
  TEAE leading to permanent discontinuation: General Disorders and Administration Site Conditions: 3 (1%) n (%)
  TEAE leading to permanent discontinuation: Haemorrhoidal Haemorrhage: 0 n (%)
  TEAE leading to permanent discontinuation: Hallucination NOS: 0 n (%)
  TEAE leading to permanent discontinuation: Hallucination, Auditory: 0 n (%)
  TEAE leading to permanent discontinuation: Headache NOS: 1 (<1%) n (%)
  TEAE leading to permanent discontinuation: Headache NOS Aggravated: 1 (<1%) n (%)
  TEAE leading to permanent discontinuation: Heart Rate Increased: 1 (<1%) n (%)
  TEAE leading to permanent discontinuation: Hepatobiliary Disorders: 1 (<1%) n (%)
  TEAE leading to permanent discontinuation: Hepatosplenomegaly NOS: 1 (<1%) n (%)
  TEAE leading to permanent discontinuation: Hiatus Hernia: 1 (<1%) n (%)
  TEAE leading to permanent discontinuation: Investigations: 5 (2%) n (%)
  TEAE leading to permanent discontinuation: Irritable Bowel Syndrome Aggravated: 1 (<1%) n (%)
  TEAE leading to permanent discontinuation: Lethargy: 0 n (%)
  TEAE leading to permanent discontinuation: Metabolism and Nutrition Disorders: 1 (<1%) n (%)
  TEAE leading to permanent discontinuation: Migraine NOS: 1 (<1%) n (%)
  TEAE leading to permanent discontinuation: Muscle Cramps: 2 (<1%) n (%)
  TEAE leading to permanent discontinuation: Musculoskeletal and Connective Tissue Disorders: 5 (2%) n (%)
  TEAE leading to permanent discontinuation: Nausea: 3 (1%) n (%)
